According to patent publication US9580604B2, “Pentafluorosulfanyl phthalocyanine derivatives and intermediates thereof” (UBE INDUSTRIES, LTD., priority 2012, dated 2017):

Assays:
[1] = UV/Vis spectra in methylene chloride; format: physicochemical; settings: for λ/nm, absorption peak, 1st peak / λ/nm, absorption peak, 2nd peak / λ/nm, absorption peak, 3rd peak / λ/nm, absorption peak, 4th peak / λ/nm, absorption peak, 5th peak / shift of the peak in the Q band: methylene chloride; for shift of the peak in the Q band / coagulation inhibitory effect / suppression of coagulation: in words; for coagulation inhibitory effect / suppression of coagulation: in solution, judged from UV/Vis spectrum
Text: FIGS. 1 to 4 show the UV/Vis spectra of the inventive phthalocyanine derivatives obtained above in Examples 8 to 11 in methylene chloride.

[2] = solubility in an organic solvent (purification by column chromatography); settings: result in words
[3] = fluorescence spectra in methylene chloride; format: physicochemical; settings: for fluorescence quantum yield, tendency in words: methylene chloride
Text: FIGS. 6 to 9 show the fluorescence spectra of the inventive phthalocyanine derivatives obtained above in Examples 8 to 11 in methylene chloride.

[4] = 1.0 × 10^−4 M + Py, broken line
[5] = 1.0 × 10^−4 M, solid line (no pyridine)
[6] = CH2C12, solid line (no pyridine)
[7] = CH2C12—Py, broken line (in the presence of pyridine)

Substance	λ/nm, absorption peak, 1st peak [1, 4] [nm]	λ/nm, absorption peak, 2nd peak [1, 4] [nm]	λ/nm, absorption peak, 3rd peak [1, 4] [nm]	λ/nm, absorption peak, 4th peak [1, 4] [nm]	λ/nm, absorption peak, 5th peak [1, 4] [nm]	λ/nm, absorption peak, 1st peak [1, 5] [nm]	λ/nm, absorption peak, 4th peak [1, 5] [nm]	λ/nm, absorption peak, 5th peak [1, 5] [nm]	solubility in an organic solvent [2]	Φf fluorescence quantum yield [3, 6]	λem (nm) [3, 6] [nm]	λem (nm) ([3]; CH2C12—Py, broken line)	Φf fluorescence quantum yield [3, 7]	λ/nm, absorption peak, 3rd peak [1, 5] [nm]	shift of the peak in the Q band [1]	fluorescence quantum yield, tendency in words [3]	λ/nm, absorption peak, 2nd peak [1, 5] [nm]	coagulation inhibitory effect / suppression of coagulation [1]
trifluoromethyl phthalocyanine [CF3Pc, reference compound]	334	371	604	628	669	334	626	668	too poorly soluble in an organic solvent to be purified by column chromatography	0.58	675	674	0.76					
α-tetrakis(thiophenoxy)-β-tetrakis(pentafluorosulfanyl)zinc phthalocyanine [Example 11]	334		406	641	713	333	641	712		0.24	721	723	0.34	407	significant redshift	decrease in fluorescence quantum yield		
α-tetrakis(phenoxy)-β-tetrakis(pentafluorosulfanyl)zinc phthalocyanine [Example 10]	328	384	624	694		326	694	733		0.26	738	704	0.34	624	significant redshift	decrease in fluorescence quantum yield	384	
tetrakis(pentafluorosulfanyl)zinc phthalocyanine [Example 8]	333	363	607	639	671	334	637	672		0.55	676	676	0.74	607			365	superior coagulation inhibitory effect
α-tetrakis(trifluoromethyl)-β-tetrakis(pentafluorosulfanyl)zinc phthalocyanine [Example 9]	332	380	597	628	659	330	629	662		0.52	669	667	0.84	598			380	superior in solubility and suppression of coagulation to the phthalocyanine obtained in Example 8
